This note sets out measurements from ChEMBL document CHEMBL1201862, “PubChem BioAssay data set” (2004).

Among the test systems are A498; A549; ACHN; BT-549; DU-145; HCC 2998; Hs-578T; NCI-H522; NCI/ADR-RES; OVCAR-4; OVCAR-5; OVCAR-8; PC-3; RXF 393; SF-268; SF-295; SNB-19; TK-10; UACC-257; MOLT-4.
Common to all, as to test: DTP human tumour cell line panel, 48 h

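1) Cells in 96-well plates. 2) Compound, 48 h, 5 concentrations. 3) Linear interpolation between surrounding doses. 4) Unreached endpoint = highest concentration. At the GI50, growth is halved.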 Active and inactive are the calls of the source. Cut-off read from the data, not from the text of the source: active = GI50 up to about 1.1 µM and inactive = higher. Where only a bound is given, the exact number is not on record here.

One may read the GI50 as the concentration that inhibits growth by half.

In the case of `Oc1ccc2ccccc2c1OCc1nnc(CCCCCCCCc2nnc(COc3c(O)ccc4ccccc34)n2Nc2ccccc2)n1Nc1ccccc1`, the GI50 was 40.7 µM (inactive) in the test on A498; 10.5 µM (inactive) with A549; 1.23 µM (inactive) in the test with ACHN; 6.19 µM (inactive) in the test on BT-549; 19.7 µM (inactive) in the test with DU-145; 8.05 µM (inactive) in the test on HCC 2998. In addition, the GI50 in the test with Hs-578T is 18.2 µM (inactive); in the test with NCI-H522, 11.1 µM (inactive); in the test on NCI/ADR-RES, 8.2 µM (inactive); with OVCAR-4 it was 10.7 µM (inactive); in the test with OVCAR-5, 2.51 µM (inactive); in the test with OVCAR-8 it was 20.9 µM (inactive). Besides, the GI50 in the test with PC-3 was 2.68 µM (inactive); with RXF 393, 28.5 µM (inactive); in the test with SF-268 it was 6.17 µM (inactive); in the test on SF-295, 0.223 µM (active); with SNB-19, 20.7 µM (inactive); in the test with TK-10, 22.6 µM (inactive). Further, in the test with UACC-257, the GI50 is 6.38 µM (inactive).
As for `O=C1c2ccccc2C(=O)c2c1ccc1conc21`, the GI50 in the test with A498 is 11.9 µM (inactive); with A549, 4.95 µM (inactive); with ACHN, 1.94 µM (inactive); in the test with BT-549, 1.91 µM (inactive); with DU-145 it was 2.59 µM (inactive); in the test with HCC 2998, 15.8 µM (inactive). For the same compound, the GI50 was 8.93 µM (inactive) with Hs-578T; 0.632 µM (active) with MOLT-4; 1.7 µM (inactive) in the test on NCI-H522; 0.649 µM (active) in the test with NCI/ADR-RES; 0.7 µM (active) in the test on OVCAR-4; 3 µM (inactive) in the test on OVCAR-5. The GI50 in the test with OVCAR-8 is 1.66 µM (inactive); with PC-3, 1.48 µM (inactive); in the test with RXF 393 it was 3.08 µM (inactive); in the test with SF-268, 2.56 µM (inactive); in the test on SF-295, 2.65 µM (inactive); with SNB-19, 5.48 µM (inactive). Moreover, the GI50 is 6.44 µM (inactive) with TK-10 and 1.98 µM (inactive) in the test with UACC-257.
As to `NC(CSCc1ccccc1)C(=O)O` (configuration not stated), the GI50 with A498, with A549, in the test on ACHN, with BT-549, in the test with DU-145 and in the test with HCC 2998 was > 100 µM (inactive) in each case. In addition, the GI50 with Hs-578T, in the test on NCI-H522, in the test on NCI/ADR-RES, in the test with OVCAR-4, in the test on OVCAR-5 and with OVCAR-8 was > 100 µM (inactive) in each case. Moreover, the GI50 in the test on PC-3, with RXF 393, in the test with SF-268, in the test on SF-295, in the test with SNB-19 and in the test with TK-10 was > 100 µM (inactive) throughout. Besides, in the test on UACC-257, the GI50 is > 100 µM (inactive).
Regarding `Cc1c(CCOC=O)c(=O)[nH]c2nncn12`, the GI50 in the test on A498, with A549, in the test with ACHN, with BT-549, in the test with DU-145 and in the test on HCC 2998 was > 100 µM (inactive) in each case. Also, the GI50 in the test with Hs-578T, in the test on MOLT-4, in the test on NCI-H522, in the test on NCI/ADR-RES, with OVCAR-4 and in the test with OVCAR-5 was > 100 µM (inactive) in each case. Also, the GI50 in the test with OVCAR-8, with PC-3, in the test on RXF 393, in the test with SF-268, in the test on SF-295 and in the test on SNB-19 was > 100 µM (inactive) each time. The GI50 with TK-10 and in the test with UACC-257 was > 100 µM (inactive) in each case.
Turning to `CCCCC(=O)NC1(c2cc3ccccc3s2)CCCCC1`, the GI50 with A498, in the test with A549, in the test with ACHN, in the test on BT-549, with DU-145 and in the test with HCC 2998 was > 100 µM (inactive) in each case. The GI50 in the test with Hs-578T was > 100 µM (inactive); in the test with NCI-H522 it was > 100 µM (inactive); in the test with NCI/ADR-RES, > 100 µM (inactive); in the test with OVCAR-4, > 100 µM (inactive); with OVCAR-5 it was > 100 µM (inactive); in the test on OVCAR-8, 80.4 µM (inactive). The GI50 in the test with PC-3, in the test on RXF 393, in the test with SF-268, with SF-295, with SNB-19 and with TK-10 was > 100 µM (inactive) each time. Further, the GI50 with UACC-257 was > 100 µM (inactive).
For the compound `O=C1c2sccc2C(=O)c2c(CO)csc21`, the GI50 is 13.7 µM (inactive) in the test on A498; 0.695 µM (active) in the test on A549; 3.52 µM (inactive) in the test with ACHN; 3.59 µM (inactive) in the test with BT-549; 2.66 µM (inactive) in the test with DU-145; 3.44 µM (inactive) in the test with HCC 2998. For the same compound, the GI50 in the test on Hs-578T is 4.17 µM (inactive); in the test with MOLT-4, 4.89 µM (inactive); in the test with NCI-H522, 1.92 µM (inactive); with NCI/ADR-RES, 3.63 µM (inactive); in the test with OVCAR-4, 2.16 µM (inactive); in the test on OVCAR-5 it was 21.2 µM (inactive). Moreover, the GI50 with OVCAR-8 is 3.66 µM (inactive); in the test on PC-3, 3.32 µM (inactive); in the test with RXF 393, 1.39 µM (inactive); in the test with SF-268, 6.5 µM (inactive); in the test with SF-295 it was 2.69 µM (inactive); in the test on SNB-19, 5.56 µM (inactive). Moreover, the GI50 in the test on TK-10 was 7.05 µM (inactive); in the test on UACC-257 it was 2.15 µM (inactive).
Take `O=C1[C@@H]2[C@@H](c3ccccc3)[C@]2(Cl)C(=O)[C@H]2[C@H](c3ccccc3)[C@@]12Cl`: the GI50 with A498 was > 100 µM (inactive); with A549 it was > 100 µM (inactive); with ACHN it was > 100 µM (inactive); in the test with BT-549, 45.8 µM (inactive); in the test on DU-145, > 100 µM (inactive); with HCC 2998, > 100 µM (inactive). For the same compound, the GI50 in the test with Hs-578T, with MOLT-4, in the test on NCI-H522, in the test on NCI/ADR-RES, in the test with OVCAR-4 and in the test on OVCAR-5 was > 100 µM (inactive) each time. The GI50 with OVCAR-8, in the test on PC-3, in the test on RXF 393, in the test with SF-268, with SF-295 and in the test with SNB-19 was > 100 µM (inactive) in each case. Also, the GI50 in the test on TK-10 and in the test on UACC-257 was > 100 µM (inactive) each time.
As for `COc1ccc(N2C(=O)CC(=O)N(C(=O)CCCCCCCCC(=O)N3C(=O)CC(=O)N(c4ccc(OC)cc4)C3=S)C2=S)cc1`, the GI50 in the test on A498 is > 100 µM (inactive); in the test with A549 it was > 100 µM (inactive); in the test with ACHN it was > 100 µM (inactive); in the test with BT-549 it was 33.9 µM (inactive); with DU-145, > 100 µM (inactive); in the test on HCC 2998, > 100 µM (inactive). In addition, the GI50 in the test with Hs-578T was > 100 µM (inactive); in the test on MOLT-4, 54.3 µM (inactive); with NCI-H522 it was 65.2 µM (inactive); with NCI/ADR-RES it was > 100 µM (inactive); in the test on OVCAR-4, > 100 µM (inactive); in the test with OVCAR-5 it was > 100 µM (inactive). Besides, the GI50 with OVCAR-8, in the test on PC-3, with RXF 393, with SF-268, in the test on SF-295 and in the test on SNB-19 was > 100 µM (inactive) in each case. For the same compound, the GI50 in the test on TK-10 and in the test on UACC-257 was > 100 µM (inactive) each time.
For the compound `CCC1=NC(N/N=C/c2ccco2)=N/C1=C\c1ccco1`, the GI50 with A498, in the test on A549, with ACHN, in the test on BT-549, with DU-145 and in the test with HCC 2998 was > 100 µM (inactive) throughout. The GI50 with Hs-578T, in the test with MOLT-4, with NCI-H522, with NCI/ADR-RES, with OVCAR-4 and in the test with OVCAR-5 was > 100 µM (inactive) throughout. The GI50 in the test with OVCAR-8, with PC-3, in the test with RXF 393, in the test with SF-268, in the test on SF-295 and with SNB-19 was > 100 µM (inactive) in each case. The GI50 with TK-10 and in the test with UACC-257 was > 100 µM (inactive) each time.
Regarding `COc1ccc(/C=C/C(=O)/C=C/c2ccc(OC)cc2)cc1`, the GI50 with A498 is > 100 µM (inactive); with A549, 46 µM (inactive); in the test on ACHN it was 89.1 µM (inactive); in the test with BT-549, 29.4 µM (inactive); with DU-145 it was > 100 µM (inactive); in the test with HCC 2998, 0.222 µM (active). For the same compound, the GI50 in the test on Hs-578T is 47.2 µM (inactive); in the test with MOLT-4, 51.1 µM (inactive); with NCI-H522 it was 42.8 µM (inactive); in the test on NCI/ADR-RES it was 97.1 µM (inactive); in the test with OVCAR-4, 43.5 µM (inactive); with OVCAR-5, > 100 µM (inactive). Moreover, the GI50 is 17.6 µM (inactive) with OVCAR-8; 69.3 µM (inactive) in the test on PC-3; 18.3 µM (inactive) with RXF 393; 54.6 µM (inactive) with SF-268; > 100 µM (inactive) in the test on SF-295; > 100 µM (inactive) in the test on SNB-19. Also, the figures for the GI50 with TK-10 and with UACC-257 were 73.3 µM (inactive) and 20 µM (inactive), respectively.
